Source: PubChem BioAssay AID2060509 (Molecular Pharmacology Branch, DTP, NCI, 2025)

Test system: 485176-168-R4-J1-PDC spheroids with HUVEC/MSC, viability
Assay: Anticancer human tumor 485176-168-R4-J1-PDC patient-derived pancreatic adenocarcinoma cell line growth inhibition [GQUAD]
Settings: for IC50: curve of first compound; for viability, T/C: stronger effect = lower value
Method in brief: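 Tumor cells were grown as complex spheroids with HUVEC endothelial cells and mesenchymal stem cells as stroma. G-quadruplex stabilizers were combined with targeted agents over half-log dilutions from near the clinical Cmax, or from 10 microM.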

[1] = second compound 0.0316 µM, first compound 0.0316 µM
[2] = second compound 0.0316 µM, first compound 0.1 µM
[3] = second compound 0.0316 µM, first compound 0.316 µM
[4] = second compound 0.0316 µM, first compound 1 µM
[5] = second compound 0.0316 µM, first compound 3.16 µM
[6] = second compound 0.0316 µM, first compound 10 µM
[7] = second compound 0.1 µM, first compound 0.0316 µM
[8] = second compound 0.1 µM, first compound 0.1 µM
[9] = second compound 0.1 µM, first compound 0.316 µM
[10] = second compound 0.1 µM, first compound 1 µM
[11] = second compound 0.1 µM, first compound 3.16 µM
[12] = second compound 0.1 µM, first compound 10 µM
[13] = second compound 0.316 µM, first compound 0.0316 µM
[14] = second compound 0.316 µM, first compound 0.1 µM
[15] = second compound 0.316 µM, first compound 0.316 µM
[16] = second compound 0.316 µM, first compound 1 µM
[17] = second compound 0.316 µM, first compound 3.16 µM
[18] = second compound 0.316 µM, first compound 10 µM
[19] = second compound 1 µM, first compound 0.0316 µM
[20] = second compound 1 µM, first compound 0.1 µM
[21] = second compound 1 µM, first compound 0.316 µM
[22] = second compound 1 µM, first compound 1 µM
[23] = second compound 1 µM, first compound 3.16 µM
[24] = second compound 1 µM, first compound 10 µM
[25] = second compound 3.16 µM, first compound 0.0316 µM
[26] = second compound 3.16 µM, first compound 0.1 µM
[27] = second compound 3.16 µM, first compound 0.316 µM
[28] = second compound 3.16 µM, first compound 1 µM
[29] = second compound 3.16 µM, first compound 3.16 µM
[30] = second compound 3.16 µM, first compound 10 µM
[31] = second compound 10 µM, first compound 0.0316 µM
[32] = second compound 10 µM, first compound 0.1 µM
[33] = second compound 10 µM, first compound 0.316 µM
[34] = second compound 10 µM, first compound 1 µM
[35] = second compound 10 µM, first compound 3.16 µM
[36] = second compound 10 µM, first compound 10 µM
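Also: spheroids exposed to compounds for seven days before readout.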
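For viability, T/C in this document: percent viability relative to DMSO vehicle control wells as 100%.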

CC(C)n1c(=O)n(C)c2cnc3cc(F)c(-c4ccc(OCCCN5CCCCC5)nc4)cc3c21 + Cc1[nH]c2ccc(F)cc2c1-c1nc2c3cccnc3c3ncccc3c2[nH]1
IC50 (second compound 0.0316 µM): > 10 µM
IC50 (second compound 0.1 µM): > 10 µM
IC50 (second compound 0.316 µM): > 10 µM
IC50 (second compound 1 µM): > 10 µM
IC50 (second compound 3.16 µM): > 10 µM
IC50 (second compound 10 µM): > 10 µM
viability, T/C [1]: 106%
viability, T/C [2]: 78.3%
viability, T/C [3]: 89.2%
viability, T/C [4]: 87.8%
viability, T/C [5]: 85.1%
viability, T/C [6]: 71.2%
viability, T/C [7]: 82.6%
viability, T/C [8]: 103%
viability, T/C [9]: 77.7%
viability, T/C [10]: 95.6%
viability, T/C [11]: 93.8%
viability, T/C [12]: 99.2%
viability, T/C [13]: 92%
viability, T/C [14]: 82.8%
viability, T/C [15]: 91.1%
viability, T/C [16]: 88.7%
viability, T/C [17]: 80.4%
viability, T/C [18]: 85.2%
viability, T/C [19]: 80.8%
viability, T/C [20]: 89.6%
viability, T/C [21]: 81.7%
viability, T/C [22]: 84.3%
viability, T/C [23]: 99.3%
viability, T/C [24]: 77.2%
viability, T/C [25]: 89.2%
viability, T/C [26]: 82.4%
viability, T/C [27]: 84.4%
viability, T/C [28]: 85%
viability, T/C [29]: 76.8%
viability, T/C [30]: 64%
viability, T/C [31]: 79.1%
viability, T/C [32]: 78.8%
viability, T/C [33]: 87.4%
viability, T/C [34]: 76.5%
viability, T/C [35]: 86%
viability, T/C [36]: 64.6%

CC(C)(O)C1CCC(Nc2ccc3ncc(-c4cccc(C(F)(F)F)c4)n3n2)CC1 (stereo not given) + Cc1cnc(CNC(=O)c2c(=O)c3ccc(N4CCCN(C)CC4)nc3n3c2sc2ccccc23)cn1
IC50 (second compound 0.0316 µM): > 10 µM
IC50 (second compound 0.1 µM): 4.38 µM
IC50 (second compound 0.316 µM): 1.37 µM
IC50 (second compound 1 µM): 0.371 µM
IC50 (second compound 3.16 µM): 0.0399 µM
IC50 (second compound 10 µM): < 0.0316 µM
viability, T/C [1]: 94.1%
viability, T/C [2]: 81.3%
viability, T/C [3]: 97.5%
viability, T/C [4]: 67%
viability, T/C [5]: 49.7%
viability, T/C [6]: 51.6%
viability, T/C [7]: 64.5%
viability, T/C [8]: 71.7%
viability, T/C [9]: 57.6%
viability, T/C [10]: 65.8%
viability, T/C [11]: 47.2%
viability, T/C [12]: 44.8%
viability, T/C [13]: 57.3%
viability, T/C [14]: 55.1%
viability, T/C [15]: 58.9%
viability, T/C [16]: 54.1%
viability, T/C [17]: 38.4%
viability, T/C [18]: 39.7%
viability, T/C [19]: 49.2%
viability, T/C [20]: 48.9%
viability, T/C [21]: 54%
viability, T/C [22]: 45.5%
viability, T/C [23]: 31.4%
viability, T/C [24]: 36.2%
viability, T/C [25]: 52.5%
viability, T/C [26]: 45%
viability, T/C [27]: 43.3%
viability, T/C [28]: 42.8%
viability, T/C [29]: 25.2%
viability, T/C [30]: 15.8%
viability, T/C [31]: 43.4%
viability, T/C [32]: 38.8%
viability, T/C [33]: 41.6%
viability, T/C [34]: 37.9%
viability, T/C [35]: 0.55%
viability, T/C [36]: 0.23%

CC(=O)O[C@H]1C(=O)[C@@]2(C)[C@H]([C@H](OC(=O)c3ccccc3)[C@]3(O)C[C@H](OC(=O)[C@H](O)[C@@H](NC(=O)c4ccccc4)c4ccccc4)C(C)=C1C3(C)C)[C@]1(OC(C)=O)CO[C@@H]1C[C@@H]2O + Cc1[nH]c2ccc(F)cc2c1-c1nc2c3cccnc3c3ncccc3c2[nH]1
IC50 (second compound 0.0316 µM): < 0.0316 µM
IC50 (second compound 0.1 µM): < 0.0316 µM
IC50 (second compound 0.316 µM): < 0.0316 µM
IC50 (second compound 1 µM): < 0.0316 µM
IC50 (second compound 3.16 µM): < 0.0316 µM
IC50 (second compound 10 µM): < 0.0316 µM
viability, T/C [1]: 29.9%
viability, T/C [2]: 10.3%
viability, T/C [3]: 10.7%
viability, T/C [4]: 10.7%
viability, T/C [5]: 10.6%
viability, T/C [6]: 11.5%
viability, T/C [7]: 29.6%
viability, T/C [8]: 13.1%
viability, T/C [9]: 16%
viability, T/C [10]: 12.4%
viability, T/C [11]: 12.3%
viability, T/C [12]: 10%
viability, T/C [13]: 24.9%
viability, T/C [14]: 14.4%
viability, T/C [15]: 14.9%
viability, T/C [16]: 9.44%
viability, T/C [17]: 12.5%
viability, T/C [18]: 11.7%
viability, T/C [19]: 28.6%
viability, T/C [20]: 13.2%
viability, T/C [21]: 12%
viability, T/C [22]: 13.2%
viability, T/C [23]: 9.22%
viability, T/C [24]: 10.8%
viability, T/C [25]: 24.5%
viability, T/C [26]: 12.1%
viability, T/C [27]: 13.4%
viability, T/C [28]: 12.2%
viability, T/C [29]: 11.3%
viability, T/C [30]: 11.8%
viability, T/C [31]: 28%
viability, T/C [32]: 9.49%
viability, T/C [33]: 14.4%
viability, T/C [34]: 14.4%
viability, T/C [35]: 11.1%
viability, T/C [36]: 12.1%

COc1ccc([C@@H](O)c2cc(-c3ncnc4cc(N5CCOCC5)ccc34)c(F)cc2Cl)nn1 + CN(C)c1ccc(Nc2c3ccc(NC(=O)CCN4CCCC4)cc3nc3cc(NC(=O)CCN4CCCC4)ccc23)cc1
IC50 (second compound 0.0316 µM): 5.71 µM
IC50 (second compound 0.1 µM): 4.75 µM
IC50 (second compound 0.316 µM): 4.76 µM
IC50 (second compound 1 µM): 4.58 µM
IC50 (second compound 3.16 µM): 4.12 µM
IC50 (second compound 10 µM): 3.13 µM
viability, T/C [1]: 97.4%
viability, T/C [2]: 96.6%
viability, T/C [3]: 96.1%
viability, T/C [4]: 82.3%
viability, T/C [5]: 70.9%
viability, T/C [6]: 31.4%
viability, T/C [7]: 97.6%
viability, T/C [8]: 98.4%
viability, T/C [9]: 89.1%
viability, T/C [10]: 80.5%
viability, T/C [11]: 60.6%
viability, T/C [12]: 30.7%
viability, T/C [13]: 87%
viability, T/C [14]: 92.2%
viability, T/C [15]: 109%
viability, T/C [16]: 75.6%
viability, T/C [17]: 62.9%
viability, T/C [18]: 30.6%
viability, T/C [19]: 106%
viability, T/C [20]: 91.8%
viability, T/C [21]: 100%
viability, T/C [22]: 84.1%
viability, T/C [23]: 60.9%
viability, T/C [24]: 27.1%
viability, T/C [25]: 108%
viability, T/C [26]: 107%
viability, T/C [27]: 81.4%
viability, T/C [28]: 74.9%
viability, T/C [29]: 57.9%
viability, T/C [30]: 31.8%
viability, T/C [31]: 77.6%
viability, T/C [32]: 87.5%
viability, T/C [33]: 73.7%
viability, T/C [34]: 61.9%
viability, T/C [35]: 52.4%
viability, T/C [36]: 23.8%

O=c1[nH]cc(F)c(=O)[nH]1 + CN(C)c1ccc(Nc2c3ccc(NC(=O)CCN4CCCC4)cc3nc3cc(NC(=O)CCN4CCCC4)ccc23)cc1
IC50 (second compound 0.0316 µM): > 10 µM
IC50 (second compound 0.1 µM): 2.63 µM
IC50 (second compound 0.316 µM): > 10 µM
IC50 (second compound 1 µM): > 10 µM
IC50 (second compound 3.16 µM): > 10 µM
IC50 (second compound 10 µM): 0.932 µM
viability, T/C [1]: 100%
viability, T/C [2]: 105%
viability, T/C [3]: 78.8%
viability, T/C [4]: 61.8%
viability, T/C [5]: 53.6%
viability, T/C [6]: 53.6%
viability, T/C [7]: 102%
viability, T/C [8]: 87.7%
viability, T/C [9]: 88.8%
viability, T/C [10]: 56.2%
viability, T/C [11]: 46.3%
viability, T/C [12]: 51%
viability, T/C [13]: 97.3%
viability, T/C [14]: 91.5%
viability, T/C [15]: 83.3%
viability, T/C [16]: 52%
viability, T/C [17]: 66.1%
viability, T/C [18]: 57.2%
viability, T/C [19]: 94.4%
viability, T/C [20]: 106%
viability, T/C [21]: 71.4%
viability, T/C [22]: 56.1%
viability, T/C [23]: 52%
viability, T/C [24]: 53.2%
viability, T/C [25]: 90.8%
viability, T/C [26]: 94.1%
viability, T/C [27]: 73.9%
viability, T/C [28]: 59.6%
viability, T/C [29]: 61.8%
viability, T/C [30]: 47.2%
viability, T/C [31]: 84.9%
viability, T/C [32]: 80.2%
viability, T/C [33]: 59.9%
viability, T/C [34]: 51.4%
viability, T/C [35]: 46.4%
viability, T/C [36]: 45.5%
